Reference: article doi:10.1101/2025.05.09.652710v1 (bioRxiv, 2025)

Assays:
[1] = target: TMPRSS2 (Homo sapiens, UniProt O15393, Q253D/R252D/R255K/S251D/S254D); experiment: Fluorogenic kinetic enzyme inhibitor assay, TMPRSS2; type: biochemical
[2] = tested on: influenza A virus strain A/California/4/2009 (pdmH1N1); conditions: for H1N1 titer Log fold reduction (1 μM): virus strain A/California/4/2009 (pdmH1N1, 72 h, 1 μM); for H1N1 titer Log fold reduction (10 μM): virus strain A/California/4/2009 (pdmH1N1, 72 h, 10 μM)
[3] = target: T1, HGFA (Homo sapiens, UniProt Q04756); experiment: Fluorogenic kinetic enzyme inhibitor assay, HGFA; type: biochemical
T1 sequence (Q04756 373-655): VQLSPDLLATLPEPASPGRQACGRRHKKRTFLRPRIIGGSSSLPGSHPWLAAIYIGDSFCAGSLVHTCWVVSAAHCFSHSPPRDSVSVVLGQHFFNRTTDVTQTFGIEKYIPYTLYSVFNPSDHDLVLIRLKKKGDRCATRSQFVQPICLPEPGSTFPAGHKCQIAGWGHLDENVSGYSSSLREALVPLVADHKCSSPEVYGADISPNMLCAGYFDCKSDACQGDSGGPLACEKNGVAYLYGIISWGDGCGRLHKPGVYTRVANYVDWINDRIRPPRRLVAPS

[4] = tested on: chimeric VSV SARS-CoV-2 virus; conditions: chimeric VSV virus

Sequence of TMPRSS2 (O15393 109-492 S251D/R252D/Q253D/S254D/R255K limits assumed): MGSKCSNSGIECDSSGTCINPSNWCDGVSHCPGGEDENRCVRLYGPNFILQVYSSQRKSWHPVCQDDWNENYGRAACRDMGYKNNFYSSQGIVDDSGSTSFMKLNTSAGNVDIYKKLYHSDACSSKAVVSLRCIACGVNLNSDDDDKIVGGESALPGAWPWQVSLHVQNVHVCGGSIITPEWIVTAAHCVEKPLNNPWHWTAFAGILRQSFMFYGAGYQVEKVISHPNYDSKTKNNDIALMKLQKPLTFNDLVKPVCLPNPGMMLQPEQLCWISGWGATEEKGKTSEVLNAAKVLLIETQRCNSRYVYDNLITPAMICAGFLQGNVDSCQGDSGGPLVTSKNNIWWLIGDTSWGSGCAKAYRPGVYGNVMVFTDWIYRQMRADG

N=C(N)NCCC[C@H](NC(=O)[C@H](Cc1ccccc1)NC(=O)[C@H](CCC(N)=O)NC(=O)Cc1ccccc1)C(=O)c1nc2ccccc2s1 [CA1018, PhAc-QFR-kbt]
IC50 [1]: 0.41 nM

N=C(N)NCCC[C@H](NC(=O)[C@H](Cc1ccccc1)NC(=O)[C@H](CCC(N)=O)NCc1ccccc1)C(=O)c1nc2ccccc2s1 [CA1022, Bn-QFR-kbt]
IC50 [1]: 0.99 nM

N=C(N)NCCC[C@H](NC(=O)[C@H](Cc1ccccc1)NC(=O)[C@H](CCC(N)=O)NCCc1ccccc1)C(=O)c1nc2ccccc2s1 [CA1033, PhCH2CH2-QFR-kbt]
IC50 [1]: 0.32 nM

CN(C)[C@@H](CCC(N)=O)C(=O)N[C@@H](Cc1ccccc1)C(=O)N[C@@H](CCCNC(=N)N)C(=O)c1nc2ccccc2s1 [CA1041, Dimethyl-QFR-kbt]
IC50 [1]: 0.86 nM

N=C(N)NCCC[C@H](NC(=O)[C@H](Cc1ccccc1)NC(=O)[C@H](CCC(N)=O)NC(=O)c1ccccc1)C(=O)c1nc2ccccc2s1 [CA1043, Bz-QFR-kbt]
IC50 [1]: 0.08 nM
H1N1 Fold inhibition @ 0.001 μM [2]: 1
H1N1 Fold inhibition @ 0.01 μM [2]: 1
H1N1 Fold inhibition @ 0.1 μM [2]: 5
H1N1 Fold inhibition @ 1 μM [2]: 968
H1N1 Fold inhibition @ 10 μM [2]: 774
H1N1 titer Log fold reduction (1 μM) [2]: 3.1
H1N1 titer Log fold reduction (10 μM) [2]: 3.0

N=C(N)NCCC[C@H](NC(=O)[C@H](Cc1ccccc1)NC(=O)[C@H](CCC(N)=O)N1CCCCC1)C(=O)c1nc2ccccc2s1 [CA1046, Pip-QFR-kbt]
IC50 [1]: 8.2 nM

CS(=O)(=O)N[C@@H](CCC(N)=O)C(=O)N[C@@H](Cc1ccccc1)C(=O)N[C@@H](CCCNC(=N)N)C(=O)c1nc2ccccc2s1 [MF1099, MeSO2-QFR-kbt, reference compound]
IC50 [3]: 341 nM

N=C(N)NCCC[C@H](NC(=O)[C@H](Cc1ccccc1)NC(=O)[C@H](CCC(N)=O)NS(=O)(=O)c1ccccc1)C(=O)c1nc2ccccc2s1 [MF1101, PhSO2-QFR-kbt]
IC50 [1]: 1 nM
IC50 [3]: 17 nM
H1N1 Fold inhibition @ 0.001 μM [2]: 1
H1N1 Fold inhibition @ 0.01 μM [2]: 1
H1N1 Fold inhibition @ 0.1 μM [2]: 4
H1N1 Fold inhibition @ 1 μM [2]: 1014
H1N1 Fold inhibition @ 10 μM [2]: 1321
H1N1 titer Log fold reduction (1 μM) [2]: 2.9
H1N1 titer Log fold reduction (10 μM) [2]: 3.3

N=C(N)NCCC[C@H](NC(=O)[C@H](Cc1ccccc1)NC(=O)[C@H](CCC(N)=O)NS(=O)(=O)C1CC1)C(=O)c1nc2ccccc2s1 [MF1104, CypSO2-QFR-kbt]
IC50 [1]: 0.27 nM
IC50 [3]: 4.2 nM
H1N1 Fold inhibition @ 0.001 μM [2]: 1
H1N1 Fold inhibition @ 0.01 μM [2]: 2
H1N1 Fold inhibition @ 0.1 μM [2]: 1
H1N1 Fold inhibition @ 1 μM [2]: 617
H1N1 Fold inhibition @ 10 μM [2]: 916
H1N1 titer Log fold reduction (1 μM) [2]: 2.9
H1N1 titer Log fold reduction (10 μM) [2]: 3.0

CC(=O)N[C@@H](CC(C)C)C(=O)N[C@@H](CCC(N)=O)C(=O)N[C@@H](Cc1ccccc1)C(=O)N[C@@H](CCCNC(=N)N)C(=O)c1nc2ccccc2s1 [MM3131, Ac-LQFR-kbt]
IC50 [1]: 0.03 nM
EC50 [4]: 11 nM

CC(=O)N[C@@H](Cc1c[nH]c2ccccc12)C(=O)N[C@@H](CC(C)C)C(=O)N[C@@H](Cc1ccccc1)C(=O)N[C@@H](CCCNC(=N)N)C(=O)c1nc2ccccc2s1 [ZFH7064, Ac-WLFR-kbt]
IC50 [1]: 0.09 nM

N=C(N)NCCC[C@H](NC(=O)[C@H](Cc1ccccc1)NC(=O)[C@H](CCC(N)=O)NC(=O)OCc1ccccc1)C(=O)c1nc2ccccc2s1 [ZFH9141, Cbz-QFR-kbt]
IC50 [1]: 0.42 nM
IC50 [3]: 85 nM
H1N1 Fold inhibition @ 0.001 μM [2]: 2
H1N1 Fold inhibition @ 0.01 μM [2]: 6
H1N1 Fold inhibition @ 0.1 μM [2]: 483
H1N1 Fold inhibition @ 1 μM [2]: 578
H1N1 Fold inhibition @ 10 μM [2]: 578
H1N1 titer Log fold reduction (1 μM) [2]: 2.8
H1N1 titer Log fold reduction (10 μM) [2]: 2.8
